Experimental data published in patent US11786519B2, “Apoptosis-inducing agents for the treatment of cancer and immune and autoimmune diseases” (AbbVie Inc., priority 2011, dated 2023).

Molecular target: Bcl-xL (Homo sapiens, UniProt Q07817)
Test: TR-FRET binding assay, competition with F-Bak for Bcl-xL
Details: competition with F-Bak probe, GST-Bcl-xL
Method: Determination of the utility of compounds having Formula (I) as binders to and inhibitors of anti-apoptotic Bcl-xL proteins was performed using the Time Resolved-Fluorescence Resonance Energy Transfer (TR-FRET) Assay. Tb-anti-GST antibody was purchased from Invitrogen (Catalog No. PV4216).
The measurement of competition of compounds of the invention with F-Bak for a Bcl-2 family protein (Bcl-xL) binding site using a Time Resolved Fluorescence Resonance Energy Transfer (TR-FRET) binding assay:
Test compounds were serially diluted in DMSO starting at 50 µM (2× starting concentration; 10% DMSO) and 10 μL transferred into a 384-well plate.
The samples are then mixed on a shaker for 1 minute then incubated for an additional 2 hours at room temperature. For each assay plate, a probe/antibody and protein/antibody/probe mixture were included as a negative and a positive control, respectively. Fluorescence was measured on the ENVISION plate reader (Perkin Elmer) using a 340/35 nm excitation filter and 520/525 (F-Bak) and 495/510 nm ([…]) emission filters. Dissociation constants (Ki) were determined using Wang's equation (Wang, Z. X. An exact mathematical expression for describing competitive binding of two different ligands to a protein molecule. FEBS Lett. 1995 360:111-114). The TR-FRET assay can be performed in the presence of varying concentrations of human serum (HS) or fetal bovine serum (FBS).

Chain of Bcl-xL (Q07817 whole entry): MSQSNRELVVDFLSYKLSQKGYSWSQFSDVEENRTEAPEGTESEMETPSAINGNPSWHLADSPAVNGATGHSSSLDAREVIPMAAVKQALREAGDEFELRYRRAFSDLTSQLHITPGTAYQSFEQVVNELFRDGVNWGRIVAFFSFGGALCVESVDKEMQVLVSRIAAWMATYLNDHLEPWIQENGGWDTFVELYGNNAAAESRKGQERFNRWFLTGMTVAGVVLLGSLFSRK

| SMILES | Ki [nM] |
| --- | --- |
| Cc1c(-c2ccc(N3CCc4cccc(C(=O)Nc5nc6ccccc6s5)c4C3)nc2C(=O)O)cccc1N(C)CC12CC3CC(CC(C3)C1)C2 [Example 55, 6-[8-(1,3-benzothiazol-2-ylcarbamoyl)-3,4-dihydroisoquinolin-2(1H)-yl]-3-(2-methyl-3-{methyl[tricyclo[3.3.1.1^3,7]dec-1-ylmethyl]amino}phenyl)pyridine-2-carboxylic acid] | 0.4 |
| COCCC1(Cn2cc(-c3ccc(N4CCc5cccc(C(=O)Nc6nc7ccccc7s6)c5C4)nc3C(=O)O)cn2)C2CC3CC(C2)CC1C3 (centres unmarked) [Example 56, 6-[8-(1,3-benzothiazol-2-ylcarbamoyl)-3,4-dihydroisoquinolin-2(1H)-yl]-3-(1-{[2-(2-methoxyethyl)tricyclo[3.3.1.1^3,7]dec-2-yl]methyl}-1H-pyrazol-4-yl)pyridine-2-carboxylic acid] | < 0.1 |
| Cc1c(-c2ccc(N3CCc4cccc(C(=O)Nc5nc6ccccc6s5)c4C3)nc2C(=O)O)nnn1CC12CC3CC(CC(C3)C1)C2 [Example 57, 6-[8-(1,3-benzothiazol-2-ylcarbamoyl)-3,4-dihydroisoquinolin-2(1H)-yl]-3-[5-methyl-1-(tricyclo[3.3.1.1^3,7]dec-1-ylmethyl)-1H-1,2,3-triazol-4-yl]pyridine-2-carboxylic acid] | < 0.1 |
| COC12CC3CC(CC(Cn4c(C#N)cc(-c5ccc(N6CCc7cccc(C(=O)Nc8nc9ccccc9s8)c7C6)nc5C(=O)O)c4C)(C3)C1)C2 [Example 58, 6-[8-(1,3-benzothiazol-2-ylcarbamoyl)-3,4-dihydroisoquinolin-2(1H)-yl]-3-(5-cyano-1-{[3-methoxytricyclo[3.3.1.1^3,7]dec-1-yl]methyl}-2-methyl-1H-pyrrol-3-yl)pyridine-2-carboxylic acid] | < 0.1 |
| N#Cc1c(-c2ccc(N3CCc4cccc(C(=O)Nc5nc6ccccc6s5)c4C3)nc2C(=O)O)cccc1S(=O)(=O)C12CC3CC(CC(C3)C1)C2 [Example 60, 6-[8-(1,3-benzothiazol-2-ylcarbamoyl)-3,4-dihydroisoquinolin-2(1H)-yl]-3-[2-cyano-3-(tricyclo[3.3.1.1^3,7]dec-1-ylsulfonyl)phenyl]pyridine-2-carboxylic acid] | < 0.1 |
| Cc1c(-c2ccc(N3CCc4cccc(C(=O)Nc5nc6ccccc6s5)c4C3)nc2C(=O)O)ccnc1N(C)C1CCCCCCC1 [Example 61, 6-[8-(1,3-benzothiazol-2-ylcarbamoyl)-3,4-dihydroisoquinolin-2(1H)-yl]-2′-[cyclooctyl(methyl)amino]-3′-methyl-3,4′-bipyridine-2-carboxylic acid] | < 0.1 |
| Cc1c(-c2ccc(N3CCc4cccc(C(=O)Nc5nc6ccccc6s5)c4C3)nc2C(=O)O)cnn1CC1C2CC3CC(C2)CC1C3 (centres unmarked) [Example 62, 6-[8-(1,3-benzothiazol-2-ylcarbamoyl)-3,4-dihydroisoquinolin-2(1H)-yl]-3-[5-methyl-1-(tricyclo[3.3.1.1^3,7]dec-2-ylmethyl)-1H-pyrazol-4-yl]pyridine-2-carboxylic acid] | < 0.1 |
| Cc1c(C(=O)N(C)C2C3CC4CC(C3)CC2C4)cccc1-c1ccc(N2CCc3cccc(C(=O)Nc4nc5ccccc5s4)c3C2)nc1C(=O)O (centres unmarked) [Example 64] | < 0.1 |
| Cc1c(-c2ccc(N3CCc4cccc(C(=O)Nc5nc6ccccc6s5)c4C3)nc2C(=O)O)cccc1N(C)C(=O)C12CC3CC(CC(C3)O1)C2 [Example 68, 6-[8-(1,3-benzothiazol-2-ylcarbamoyl)-3,4-dihydroisoquinolin-2(1H)-yl]-3-{2-methyl-3-[methyl(2-oxatricyclo[3.3.1.1^3,7]dec-1-ylcarbonyl)amino]phenyl}pyridine-2-carboxylic acid] | < 0.1 |
| Cc1c(-c2ccc(N3CCc4cccc(C(=O)Nc5nc6ccccc6s5)c4C3)nc2C(=O)O)cccc1S(=O)(=O)N(C)C1C2CC3CC(C2)CC1C3 (centres unmarked) [Example 69, 6-[8-(1,3-benzothiazol-2-ylcarbamoyl)-3,4-dihydroisoquinolin-2(1H)-yl]-3-(2-methyl-3-{methyl[tricyclo[3.3.1.1^3,7]dec-2-yl]sulfamoyl}phenyl)pyridine-2-carboxylic acid] | 0.6 |
| Cc1c(-c2ccc(N3CCc4cccc(C(=O)Nc5nc6ccccc6s5)c4C3)nc2C(=O)O)ccnc1S(=O)(=O)C12CC3CC(CC(C3)C1)C2 [Example 70, 6-[8-(1,3-benzothiazol-2-ylcarbamoyl)-3,4-dihydroisoquinolin-2(1H)-yl]-3′-methyl-2′-(tricyclo[3.3.1.1^3,7]dec-1-ylsulfonyl)-3,4′-bipyridine-2-carboxylic acid] | < 0.1 |
| Cc1c(-c2ccc(N3CCc4cccc(C(=O)Nc5nc6ccccc6s5)c4C3)nc2C(=O)O)cc(C#N)n1CC12CC3CC(CC(C)(C3)O1)C2 [Example 72, 6-[8-(1,3-benzothiazol-2-ylcarbamoyl)-3,4-dihydroisoquinolin-2(1H)-yl]-3-{5-cyano-2-methyl-1-[(3-methyl-2-oxatricyclo[3.3.1.1^3,7]dec-1-yl)methyl]-1H-pyrrol-3-yl}pyridine-2-carboxylic acid] | < 0.1 |
| Cc1c(-c2ccc(N3CCc4cccc(C(=O)Nc5cn6ccncc6n5)c4C3)nc2C(=O)O)cnn1CC12CC3CC(CC(C3)C1)C2 [Example 73, 6-[8-(imidazo[1,2-a]pyrazin-2-ylcarbamoyl)-3,4-dihydroisoquinolin-2(1H)-yl]-3-[5-methyl-1-(tricyclo[3.3.1.1^3,7]dec-1-ylmethyl)-1H-pyrazol-4-yl]pyridine-2-carboxylic acid] | < 0.1 |
| Cc1c(-c2ccc(N3CCc4cccc(C(=O)Nc5nc6ccccc6s5)c4C3)nc2C(=O)O)cnn1CC12CC3CC(C1)CC(S(C)(=O)=O)(C3)C2 [Example 81, 6-[8-(1,3-benzothiazol-2-ylcarbamoyl)-3,4-dihydroisoquinolin-2(1H)-yl]-3-(5-methyl-1-{[3-(methylsulfonyl)tricyclo[3.3.1.1^3,7]dec-1-yl]methyl}-1H-pyrazol-4-yl)pyridine-2-carboxylic acid] | < 0.1 |
| CNCCOC12CC3(C)CC(C)(CC(Cn4ncc(-c5ccc(N6CCc7cccc(C(=O)Nc8nc9ccccc9s8)c7C6)nc5C(=O)O)c4C)(C3)C1)C2 [Example 82, 6-[8-(1,3-benzothiazol-2-ylcarbamoyl)-3,4-dihydroisoquinolin-2(1H)-yl]-3-[1-({3,5-dimethyl-7-[2-(methylamino)ethoxy]tricyclo[3.3.1.1^3,7]dec-1-yl}methyl)-5-methyl-1H-pyrazol-4-yl]pyridine-2-carboxylic acid] | < 0.1 |
| CNCCOCCOCCOC12CC3CC(CC(Cn4ncc(-c5ccc(N6CCc7cccc(C(=O)Nc8nc9ccccc9s8)c7C6)nc5C(=O)O)c4C)(C3)C1)C2 [Example 83, 6-[8-(1,3-benzothiazol-2-ylcarbamoyl)-3,4-dihydroisoquinolin-2(1H)-yl]-3-(5-methyl-1-{[3-(2-{2-[2-(methylamino)ethoxy]ethoxy}ethoxy)tricyclo[3.3.1.1^3,7]dec-1-yl]methyl}-1H-pyrazol-4-yl)pyridine-2-carboxylic acid] | < 0.1 |
| O=C(Nc1nc2ccccc2s1)c1cccc2c1CN(c1ccc(-c3ccc(=O)n(CC45CC6CC(CC(C6)C4)C5)c3)c(C(=O)O)n1)CC2 [Example 85, 6-[8-(1,3-benzothiazol-2-ylcarbamoyl)-3,4-dihydroisoquinolin-2(1H)-yl]-6′-oxo-1′-(tricyclo[3.3.1.1^3,7]dec-1-ylmethyl)-1′,6′-dihydro-3,3′-bipyridine-2-carboxylic acid] | < 0.1 |
